For one experiment, the target named is hDAT (Homo sapiens (Human), UniProt Q01959). Put plainly: DAT radioligand binding assay ([125I]RTI-55, HEK-293 membranes). To be noted: recombinant HEK-293 membranes, [125I]RTI-55; read-out: Binding Affinity (IC50, nM) DAT. As for the experimental part:
(§1) Recombinant HEK-293 cells expressing either the hSERT, hDAT, or hNET proteins were harvested from T-175 flasks as follows. The medium was removed from the flasks and the cells rinsed with HBSS without Ca and without Mg. The cells were then incubated for 5-10 minutes in 10 mM Tris-Cl, pH 7.5, 5 mM EDTA before the cells were lifted with a combination of pipetting and scraping, as needed. The cell suspension was collected into centrifuge bottles and homogenized for 30 seconds with a Polytron homogenizer. The suspension was centrifuged for 30 minutes at 32,000×g, 4° C. The supernatant was decanted and the pellet resuspended and homogenized in 50 mM Tris-Cl, pH 7.5, 1 mM EDTA for 10 seconds. The suspension was then centrifuged again for 30 minutes at 32,000×g, 4° C. The supernatant was decanted and the pellet resuspended in 50 mM Tris-Cl, pH 7.5, 1 mM EDTA and briefly homogenized. A Bradford assay (Bio-rad) was performed and the membrane preparation diluted to 2 mg/ml with 50 mM Tris-Cl, pH 7.5, 1 mM EDTA. Aliquots were prepared, and then frozen and stored at −80° C.
Compounds were dissolved in 100% DMSO at a concentration 100 times the desired highest assay concentration, serially diluted 1:3 in 100% DMSO, and 0.4 μl/well of each solution was dispensed to a Nunc polypropylene, round bottom, 384-well plate. […] 20 ul/well of a 2× membrane preparation (12.5 μg/ml in 30 mM sodium phosphate buffer, pH 7.9 at 4° C.) and 20 μl/well of a 2× radioligand solution (250 pM [^125I]RTI-55 in 30 mM sodium phosphate buffer, pH 7.9 at 4° C.) were added to the well and the reaction incubated for 1 hour at room temperature. The contents of the assay plate were then transferred to a Millipore MultiscreenHTS GF/B filter plate which was pretreated with 0.5% PEI for at least one hour. The plate was vacuum-filtered and washed with 7 washes of 100 μl/well 50 mM Tris-Cl, pH 7.5, 120 mM NaCl, 5 mM KCl chilled to 4° C. The filtration and washing were completed in less than 90 seconds. The plates were air-dried overnight, 12 μl/well of MicroScint scintillation fluid added, and the plates counted in a Trilux.
(§2) Each plate was run in triplicate, and the concentration response curve thus generated was fit using the four-parameter dose response equation, Y=Bottom+(Top-Bottom)/(1+10^((Log IC50−X)*HillSlope)) in order to determine the IC50 value for each compound. The radioligand concentration chosen for each assay corresponds to the Kd concentration determined through saturation binding analysis for each assay.

A further experiment addresses hSERT (Homo sapiens (Human), UniProt P31645). Put plainly: SERT radioligand binding assay ([125I]RTI-55, HEK-293 membranes). To be noted: recombinant HEK-293 membranes, [125I]RTI-55; read-out: Binding Affinity (IC50, nM) SERT. As for the experimental part: as §1, with “The” for “Recombinant HEK-293 cells expressing either the hSERT, hDAT, or hNET proteins were harvested from T-175 flasks as follows. The”
Compounds were dissolved in 100% DMSO at a concentration 100 times the desired highest assay concentration, serially diluted 1:3 in 100% DMSO, and 0.4 μl/well of each solution was dispensed to a Nunc polypropylene, round bottom, 384-well plate. […] The contents of the assay plate were then transferred to a Millipore MultiscreenHTS GF/B filter plate which was pretreated with 0.5% PEI for at least one hour. The plate was vacuum filtered and washed with 7 washes of […] 50 mM Tris-Cl, pH 7.5, 120 mM NaCl, 5 mM KCl chilled to 4° C. The filtration and washing were completed in less than 90 seconds. The plates were air-dried overnight, 12 μl/well of MicroScint scintillation fluid added, and the plates counted in a Trilux.
as §2

In a further experiment the target is hNET (Homo sapiens (Human), UniProt P23975). Put plainly: NET radioligand binding assay ([3H]nisoxetine, HEK-293 membranes). Particulars: recombinant HEK-293 membranes, [3H]nisoxetine; read-out: Binding Affinity (IC50, nM) NET. As for the experimental part:
as §1, with “The” for “Recombinant HEK-293 cells expressing either the hSERT, hDAT, or hNET proteins were harvested from T-175 flasks as follows. The”
Compounds were dissolved in 100% DMSO at a concentration 100 times the desired highest assay concentration, serially diluted 1:3 in 100% DMSO, and 1.0 μl/well of each solution was dispensed to a Nunc polypropylene, round bottom, 384-well plate. […] 50 μl/well of a 2× membrane preparation (0.4 mg/ml in 50 mM Tris-Cl, pH 7.5, 120 mM NaCl, 5 mM KCl) and 50 μl/well of a 2× radioligand solution (4 nM [^3H]nisoxetine in 50 mM Tris-Cl, pH 7.5, 120 mM NaCl, 5 mM KCl) were added to the well and the reaction incubated for 1 hour at room temperature. The contents of the assay plate were then transferred to a Millipore MultiscreenHTS GF/B filter plate which was pretreated with 0.5% PEI for at least one hour. The plate was vacuum filtered and washed with 7 washes of 100 μl/well 50 mM Tris-Cl, pH 7.5, 120 mM NaCl, 5 mM KCl chilled to 4° C. The filtration and washing were completed in less than 90 seconds. The plates were air-dried overnight, 12 μl/well of MicroScint scintillation fluid added, and the plates counted in a Trilux.
as §2

Among the data in patent US9045468B2, “2,5-methano- and 2,5-ethano-tetrahydrobenzazepine derivatives and use thereof to block reuptake of norepinephrine, dopamine, and serotonin” (Albany Molecular Research, Inc., priority 2010, dated 2015) are IC50 values, retold here.

The structures appear in SMILES notation.

Sequence of hNET (P23975 whole entry): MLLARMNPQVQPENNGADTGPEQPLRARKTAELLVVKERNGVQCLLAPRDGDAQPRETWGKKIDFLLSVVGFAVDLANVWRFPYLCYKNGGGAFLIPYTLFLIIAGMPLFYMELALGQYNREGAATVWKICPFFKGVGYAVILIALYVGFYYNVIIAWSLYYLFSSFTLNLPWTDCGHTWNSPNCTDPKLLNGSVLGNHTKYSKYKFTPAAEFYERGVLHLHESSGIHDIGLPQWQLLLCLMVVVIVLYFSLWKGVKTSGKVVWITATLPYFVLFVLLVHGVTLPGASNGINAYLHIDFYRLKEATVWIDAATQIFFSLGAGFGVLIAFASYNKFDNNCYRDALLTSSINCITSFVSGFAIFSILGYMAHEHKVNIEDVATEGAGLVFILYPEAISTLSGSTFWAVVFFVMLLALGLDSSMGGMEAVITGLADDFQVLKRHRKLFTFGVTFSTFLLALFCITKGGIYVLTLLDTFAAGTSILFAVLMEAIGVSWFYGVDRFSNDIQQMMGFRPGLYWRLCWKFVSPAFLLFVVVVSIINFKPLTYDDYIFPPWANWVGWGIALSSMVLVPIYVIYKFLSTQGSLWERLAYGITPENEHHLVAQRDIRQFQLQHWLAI
Sequence of hSERT (P31645 whole entry): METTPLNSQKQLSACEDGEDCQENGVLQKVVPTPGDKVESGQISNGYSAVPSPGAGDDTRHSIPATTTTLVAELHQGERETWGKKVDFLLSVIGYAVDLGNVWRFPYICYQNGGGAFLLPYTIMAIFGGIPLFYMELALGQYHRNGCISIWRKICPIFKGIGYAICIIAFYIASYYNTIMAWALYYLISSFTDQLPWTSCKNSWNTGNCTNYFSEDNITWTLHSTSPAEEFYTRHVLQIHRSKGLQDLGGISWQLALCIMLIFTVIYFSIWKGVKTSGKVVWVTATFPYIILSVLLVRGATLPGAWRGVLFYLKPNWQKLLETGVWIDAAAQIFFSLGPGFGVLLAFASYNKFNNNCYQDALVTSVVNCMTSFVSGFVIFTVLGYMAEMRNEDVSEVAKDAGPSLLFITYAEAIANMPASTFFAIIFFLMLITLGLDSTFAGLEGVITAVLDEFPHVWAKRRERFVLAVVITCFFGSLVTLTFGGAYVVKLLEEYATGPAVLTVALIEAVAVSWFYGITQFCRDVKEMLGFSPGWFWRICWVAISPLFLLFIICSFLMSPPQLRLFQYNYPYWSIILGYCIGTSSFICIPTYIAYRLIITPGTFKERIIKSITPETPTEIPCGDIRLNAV
Sequence of hDAT (Q01959 whole entry): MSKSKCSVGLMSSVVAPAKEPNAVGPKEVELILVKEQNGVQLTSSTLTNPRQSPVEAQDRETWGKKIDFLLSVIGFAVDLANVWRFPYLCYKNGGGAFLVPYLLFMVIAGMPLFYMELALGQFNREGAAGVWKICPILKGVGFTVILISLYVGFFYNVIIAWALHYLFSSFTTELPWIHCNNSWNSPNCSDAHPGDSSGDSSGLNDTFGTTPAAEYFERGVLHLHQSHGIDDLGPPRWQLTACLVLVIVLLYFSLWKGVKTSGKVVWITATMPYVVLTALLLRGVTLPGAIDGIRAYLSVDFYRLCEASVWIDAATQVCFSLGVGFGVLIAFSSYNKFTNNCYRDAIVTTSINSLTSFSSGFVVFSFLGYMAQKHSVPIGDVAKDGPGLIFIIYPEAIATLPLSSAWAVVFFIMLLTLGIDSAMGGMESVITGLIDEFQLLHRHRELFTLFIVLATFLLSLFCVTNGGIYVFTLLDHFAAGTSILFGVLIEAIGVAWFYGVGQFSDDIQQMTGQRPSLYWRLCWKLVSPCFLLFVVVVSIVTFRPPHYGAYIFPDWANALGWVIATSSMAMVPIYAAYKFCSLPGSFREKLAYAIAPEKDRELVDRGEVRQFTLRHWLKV

With `Clc1ccc(C23CCN(Cc4cc(-c5ccc6ncnn6c5)ccc42)C3)cc1Cl` (single isomer, unassigned) [10(+), 8-([1,2,4]triazolo[1,5-a]pyridin-6-yl)-5-(3,4-dichlorophenyl)-2,5-methano-2,3,4,5-tetrahydro-1H-benzo[c]azepine], the IC50 (in general, the concentration at which inhibition is half-maximal) turned out to be 49.5 nM on hDAT, 4.6 nM on hSERT and 242 nM on hNET.

As to `Nc1cnc(Oc2ccc3c(c2)CN2CCC3(c3ccc(Cl)cc3)CC2)cn1` [Example 34, 5-(5-(4-chlorophenyl)-2,5-ethano-2,3,4,5-tetrahydro-1H-benzo[c]azepin-8-yloxy)pyrazin-2-amine], the IC50 on hDAT was determined as 104 nM; at hSERT it was 2.3 nM; on hNET it was 430 nM.

Regarding `c1cc(C23CCN(CC2)Cc2cc(N4CCOCC4)ccc23)ccc1N1CCOCC1` [Example 29, 4-(2,5-ethano-5-(4-morpholinophenyl)-2,3,4,5-tetrahydro-1H-benzo[c]azepin-8-yl)morpholine], the IC50 came out at 5260 nM on hDAT, 328 nM on hSERT and 5460 nM on hNET.

In the case of `Clc1ccc(C23CCN(CC2)Cc2cc(N4CCOCC4)ccc23)cc1` [Example 28, 4-(5-(4-chlorophenyl)-2,5-ethano-2,3,4,5-tetrahydro-1H-benzo[c]azepin-8-yl)morpholine], the IC50 on hDAT was found to be 58.9 nM; at hSERT, 8 nM; at hNET, 438 nM.

Consider `Fc1ccc(C23CCN(Cc4cc(-c5ccc6ncnn6c5)ccc42)C3)cc1Cl` (single isomer, unassigned) [55(+), 8-([1,2,4]triazolo[1,5-a]pyridin-6-yl)-5-(3-chloro-4-fluorophenyl)-2,5-methano-2,3,4,5-tetrahydro-1H-benzo[c]azepine], for which the figures for the IC50 on hDAT, on hSERT and at hNET were 121 nM, 18.6 nM and 956 nM, respectively.

In the case of `Clc1ccc(C23CCN(Cc4cc(-c5ccc6ncnn6c5)ccc42)C3)cc1` (single isomer, unassigned) [3(+), 8-([1,2,4]triazolo[1,5-a]pyridin-6-yl)-5-(4-chlorophenyl)-2,5-methano-2,3,4,5-tetrahydro-1H-benzo[c]azepine], the IC50 on hDAT was 340 nM; at hSERT it was 9.4 nM; at hNET it was 817 nM.

Turning to `O=c1ccccn1-c1ccc2c(c1)CN1CCC2(c2ccc(Cl)cc2)CC1` [Example 24, 1-(5-(4-chlorophenyl)-2,5-ethano-2,3,4,5-tetrahydro-1H-benzo[c]azepin-8-yl)pyridin-2(1H)-one], the figures for the IC50 on hDAT, at hSERT and on hNET were 856 nM, 7.3 nM and 5330 nM, respectively.

As for `Clc1ccc(C23CCN(Cc4cc(-c5ccc6ncnn6c5)ccc42)C3)cc1` (single isomer, unassigned) [3(−), 8-([1,2,4]triazolo[1,5-a]pyridin-6-yl)-5-(4-chlorophenyl)-2,5-methano-2,3,4,5-tetrahydro-1H-benzo[c]azepine], the IC50 at hDAT was determined as 141 nM; on hSERT it was 5.2 nM; at hNET it was 443 nM.

For the compound `FC(F)Oc1ccc2c(c1)CN1CCC2(c2ccc(Cl)c(Cl)c2)CC1` [Example 46, 5-(3,4-dichlorophenyl)-2,5-ethano-8-(difluoromethoxy)-2,3,4,5-tetrahydro-1H-benzo[c]azepine], the results for the IC50 at hDAT, on hSERT and at hNET were 55.2 nM, 3 nM and 140 nM, respectively.

Consider `Fc1ccc(C23CCN(CC2)Cc2cc(Oc4ccc(C(F)(F)F)nn4)ccc23)cc1` [Example 52, 5-(4-fluorophenyl)-2,5-ethano-8-(6-(trifluoromethyl)pyridazin-3-yloxy)-2,3,4,5-tetrahydro-1H-benzo[c]azepine], for which the IC50 on hDAT was determined as 42.8 nM; on hSERT it was 8.9 nM; on hNET, 206 nM.

`Clc1ccc(C23CCN(CC2)Cc2cc(OCCCc4ccncc4)ccc23)cc1` [Example 35, 5-(4-chlorophenyl)-2,5-ethano-8-(3-(pyridin-4-yl)propoxy)-2,3,4,5-tetrahydro-1H-benzo[c]azepine]: the IC50 at hDAT stood at 205 nM; at hSERT, 4.2 nM; at hNET it was 54.8 nM.

Regarding `Fc1ccc(C23CCN(CC2)Cc2cc(Oc4ccc(C(F)(F)F)nn4)ccc23)cc1F` [Example 51, 5-(3,4-difluorophenyl)-2,5-ethano-8-(6-(trifluoromethyl)pyridazin-3-yloxy)-2,3,4,5-tetrahydro-1H-benzo[c]azepine], the IC50 came out at 63.2 nM at hDAT, 20.2 nM on hSERT and 231 nM on hNET.

With `COc1ccc(-c2ccc3c(c2)CN2CCC3(c3ccc(Cl)c(Cl)c3)CC2)nn1` [Example 40, 5-(3,4-dichlorophenyl)-8-(6-methoxypyridazin-3-yl)-2,5-ethano-2,3,4,5-tetrahydro-1H-benzo[c]azepine], the IC50 on hDAT was 5.9 nM; on hSERT, 9.8 nM; at hNET, 148 nM.

With `Fc1ccc(C23CCN(Cc4cc(-c5ccc(C(F)(F)F)nn5)ccc42)C3)cc1Cl` (single isomer, unassigned) [56(−), 5-(3-chloro-4-fluorophenyl)-2,5-methano-8-(6-(trifluoromethyl)pyridazin-3-yl)-2,3,4,5-tetrahydro-1H-benzo[c]azepine], the IC50 at hDAT amounted to 243 nM; at hSERT it was 57.8 nM; on hNET it was 798 nM.

Turning to `Fc1ccc(C23CCN(CC2)Cc2cc(-c4ccc5ncnn5c4)ccc23)cc1Cl` [Example 54, 8-([1,2,4]triazolo[1,5-a]pyridin-6-yl)-5-(3-chloro-4-fluorophenyl)-2,5-ethano-2,3,4,5-tetrahydro-1H-benzo[c]azepine], the IC50 stood at 78 nM at hDAT, 4.4 nM on hSERT and 541 nM on hNET.

On to `O=c1[nH]c2ccc(-c3ccc4c(c3)CN3CCC4(c4ccc(Cl)c(Cl)c4)C3)cc2o1` (single isomer, unassigned) [11(−), 8-(2-oxo-2,3-dihydrobenzo[d]oxazol-6-yl)-5-(3,4-dichlorophenyl)-2,5-methano-2,3,4,5-tetrahydro-1H-benzo[c]azepine], for which the IC50 turned out to be 19.6 nM on hDAT, 3.9 nM on hSERT and 92.4 nM at hNET.
